Legend:
Assay in all cases: relative viability (nuclei count vs DMSO), 5 days (fraction); higher = more cells survive
[1] = system: NCI-H1793
In short: (§1)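 Each reported value is a median over duplicate plates. It expresses relative viability: treated-well nuclei count divided by vehicle-well nuclei count. Lung cancer cell lines in 1536-well plates were dosed by pin tool a day after seeding, alone with one drug or with a fixed anchor-drug dose plus five library-drug doses (not always all listed) in √10 steps, and nuclei were counted after 5 days.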

[2] = system: HCC-78
In short: as §1

[3] = system: LXF-289
In short: as §1

[4] = system: HCC-366
In short: as §1

[5] = system: LC-2-ad
In short: as §1

[6] = system: LCLC-97TM1
In short: as §1

[7] = system: COR-L 105
In short: as §1

[8] = system: SW 900
In short: as §1

[9] = system: NCI-H358
In short: as §1

[10] = system: NCI-H1944
In short: as §1

[11] = system: NCI-H2085
In short: as §1

[12] = system: NCI-H1915
In short: as §1

[13] = system: NCI-H1755
In short: as §1

[14] = system: HOP-62
In short: as §1

[15] = system: LU99A
In short: as §1

[16] = system: UMC-11
In short: as §1

[17] = system: NCI-H2170
In short: as §1

[18] = system: NCI-H1975
In short: as §1

[19] = system: SK-LU-1
In short: as §1

[20] = system: EPLC-272H
In short: as §1

[21] = system: NCI-H460
In short: as §1

[22] = system: A-427
In short: as §1

SMILES: O=C(O)c1ccc(-c2c[nH]c3ncc(-c4ccccc4)cc23)cc1C1CCCC1 + Cc1cc(Nc2cc(N3CCN(C)CC3)nc(Sc3ccc(NC(=O)C4CC4)cc3)n2)n[nH]1 [Tozasertib] (partner 0.1 µM)
- relative viability ([1]; first compound 0.04 µM): 0.345
- relative viability ([1]; first compound 0.1265 µM): 0.323
- relative viability ([1]; first compound 0.4 µM): 0.513
- relative viability ([1]; first compound 1.265 µM): 0.266
- relative viability ([2]; first compound 0.1265 µM): 0.468
- relative viability ([2]; first compound 0.4 µM): 0.405
- relative viability ([2]; first compound 1.265 µM): 0.345
- relative viability ([3]; first compound 0.04 µM): 0.229
- relative viability ([3]; first compound 0.1265 µM): 0.187
- relative viability ([3]; first compound 0.4 µM): 0.126
- relative viability ([3]; first compound 1.265 µM): 0.143
- relative viability ([4]; first compound 0.04 µM): 0.128
- relative viability ([4]; first compound 0.1265 µM): 0.163
- relative viability ([4]; first compound 0.4 µM): 0.0869
- relative viability ([4]; first compound 1.265 µM): 0.0888
- relative viability ([5]; first compound 0.04 µM): 0.482
- relative viability ([5]; first compound 0.1265 µM): 0.407
- relative viability ([5]; first compound 0.4 µM): 0.399
- relative viability ([5]; first compound 1.265 µM): 0.402
- relative viability ([6]; first compound 0.04 µM): 0.338
- relative viability ([6]; first compound 0.1265 µM): 0.315
- relative viability ([6]; first compound 0.4 µM): 0.243
- relative viability ([6]; first compound 1.265 µM): 0.188
- relative viability ([7]; first compound 0.04 µM): 0.304
- relative viability ([7]; first compound 0.1265 µM): 0.36
- relative viability ([7]; first compound 0.4 µM): 0.357
- relative viability ([7]; first compound 1.265 µM): 0.36
- relative viability ([8]; first compound 0.04 µM): 0.638
- relative viability ([8]; first compound 0.1265 µM): 0.585
- relative viability ([8]; first compound 0.4 µM): 0.526
- relative viability ([8]; first compound 1.265 µM): 0.311
- relative viability ([9]; first compound 0.04 µM): 0.0826
- relative viability ([9]; first compound 0.1265 µM): 0.107
- relative viability ([9]; first compound 0.4 µM): 0.0884
- relative viability ([9]; first compound 1.265 µM): 0.0978
- relative viability ([10]; first compound 0.04 µM): 0.231
- relative viability ([10]; first compound 0.1265 µM): 0.259
- relative viability ([10]; first compound 0.4 µM): 0.233
- relative viability ([10]; first compound 1.265 µM): 0.249
- relative viability ([11]; first compound 0.04 µM): 0.772
- relative viability ([11]; first compound 0.1265 µM): 0.829
- relative viability ([11]; first compound 0.4 µM): 0.598
- relative viability ([11]; first compound 1.265 µM): 0.52
- relative viability ([12]; first compound 0.04 µM): 0.445
- relative viability ([12]; first compound 0.1265 µM): 0.427
- relative viability ([12]; first compound 0.4 µM): 0.364
- relative viability ([12]; first compound 1.265 µM): 0.275
- relative viability ([13]; first compound 0.04 µM): 0.609
- relative viability ([13]; first compound 0.1265 µM): 0.628
- relative viability ([13]; first compound 0.4 µM): 0.514
- relative viability ([13]; first compound 1.265 µM): 0.509
- relative viability ([14]; first compound 0.04 µM): 0.393
- relative viability ([14]; first compound 0.1265 µM): 0.332
- relative viability ([14]; first compound 0.4 µM): 0.304
- relative viability ([14]; first compound 1.265 µM): 0.308
- relative viability ([15]; first compound 0.04 µM): 0.268
- relative viability ([15]; first compound 0.1265 µM): 0.253
- relative viability ([15]; first compound 0.4 µM): 0.281
- relative viability ([15]; first compound 1.265 µM): 0.257
- relative viability ([16]; first compound 0.04 µM): 0.189
- relative viability ([16]; first compound 0.1265 µM): 0.197
- relative viability ([16]; first compound 0.4 µM): 0.199
- relative viability ([16]; first compound 1.265 µM): 0.191
- relative viability ([17]; first compound 0.04 µM): 0.721
- relative viability ([17]; first compound 0.1265 µM): 0.726
- relative viability ([17]; first compound 0.4 µM): 0.679
- relative viability ([17]; first compound 1.265 µM): 0.612
- relative viability ([18]; first compound 0.04 µM): 0.681
- relative viability ([18]; first compound 0.1265 µM): 0.875
- relative viability ([18]; first compound 0.4 µM): 0.794
- relative viability ([18]; first compound 1.265 µM): 0.729
- relative viability ([19]; first compound 0.04 µM): 0.296
- relative viability ([19]; first compound 0.1265 µM): 0.347
- relative viability ([19]; first compound 0.4 µM): 0.298
- relative viability ([19]; first compound 1.265 µM): 0.292
- relative viability ([20]; first compound 0.04 µM): 0.295
- relative viability ([20]; first compound 0.1265 µM): 0.313
- relative viability ([20]; first compound 0.4 µM): 0.274
- relative viability ([20]; first compound 1.265 µM): 0.0995
- relative viability ([21]; first compound 0.04 µM): 0.413
- relative viability ([21]; first compound 0.1265 µM): 0.384
- relative viability ([21]; first compound 0.4 µM): 0.491
- relative viability ([21]; first compound 1.265 µM): 0.306
- relative viability ([22]; first compound 0.04 µM): 0.23
- relative viability ([22]; first compound 0.1265 µM): 0.255
- relative viability ([22]; first compound 0.4 µM): 0.182
- relative viability ([22]; first compound 1.265 µM): 0.182

SMILES: O=C(O)c1ccc(-c2c[nH]c3ncc(-c4ccccc4)cc23)cc1C1CCCC1 + COc1cc2c(Oc3ccc(NC(=O)C4(C(=O)Nc5ccc(F)cc5)CC4)cc3F)ccnc2cc1OCCCN1CCOCC1 [Foretinib] (partner 0.25 µM)
- relative viability ([1]; first compound 0.04 µM): 0.66
- relative viability ([1]; first compound 0.1265 µM): 0.75
- relative viability ([1]; first compound 0.4 µM): 0.702
- relative viability ([1]; first compound 1.265 µM): 0.602
- relative viability ([2]; first compound 0.1265 µM): 0.584
- relative viability ([2]; first compound 0.4 µM): 0.524
- relative viability ([2]; first compound 1.265 µM): 0.531
- relative viability ([3]; first compound 0.04 µM): 0.972
- relative viability ([3]; first compound 0.1265 µM): 0.939
- relative viability ([3]; first compound 0.4 µM): 0.867
- relative viability ([3]; first compound 1.265 µM): 0.543
- relative viability ([4]; first compound 0.04 µM): 0.948
- relative viability ([4]; first compound 0.1265 µM): 0.951
- relative viability ([4]; first compound 0.4 µM): 0.894
- relative viability ([4]; first compound 1.265 µM): 0.881
- relative viability ([5]; first compound 0.04 µM): 0.973
- relative viability ([5]; first compound 0.1265 µM): 0.935
- relative viability ([5]; first compound 0.4 µM): 0.798
- relative viability ([5]; first compound 1.265 µM): 0.702
- relative viability ([6]; first compound 0.04 µM): 0.911
- relative viability ([6]; first compound 0.1265 µM): 1.03
- relative viability ([6]; first compound 0.4 µM): 0.892
- relative viability ([6]; first compound 1.265 µM): 0.525
- relative viability ([7]; first compound 0.04 µM): 1.1
- relative viability ([7]; first compound 0.1265 µM): 1.43
- relative viability ([7]; first compound 0.4 µM): 0.886
- relative viability ([7]; first compound 1.265 µM): 1.22
- relative viability ([8]; first compound 0.04 µM): 0.921
- relative viability ([8]; first compound 0.1265 µM): 0.839
- relative viability ([8]; first compound 0.4 µM): 0.896
- relative viability ([8]; first compound 1.265 µM): 0.824
- relative viability ([9]; first compound 0.04 µM): 0.768
- relative viability ([9]; first compound 0.1265 µM): 0.949
- relative viability ([9]; first compound 0.4 µM): 0.619
- relative viability ([9]; first compound 1.265 µM): 0.397
- relative viability ([10]; first compound 0.04 µM): 0.923
- relative viability ([10]; first compound 0.1265 µM): 0.988
- relative viability ([10]; first compound 0.4 µM): 0.911
- relative viability ([10]; first compound 1.265 µM): 0.807
- relative viability ([11]; first compound 0.04 µM): 1.14
- relative viability ([11]; first compound 0.1265 µM): 0.988
- relative viability ([11]; first compound 0.4 µM): 0.845
- relative viability ([11]; first compound 1.265 µM): 0.56
- relative viability ([12]; first compound 0.04 µM): 1.13
- relative viability ([12]; first compound 0.1265 µM): 1.11
- relative viability ([12]; first compound 0.4 µM): 1.03
- relative viability ([12]; first compound 1.265 µM): 0.783
- relative viability ([13]; first compound 0.04 µM): 0.913
- relative viability ([13]; first compound 0.1265 µM): 1.02
- relative viability ([13]; first compound 0.4 µM): 0.939
- relative viability ([13]; first compound 1.265 µM): 0.861
- relative viability ([14]; first compound 0.04 µM): 1.09
- relative viability ([14]; first compound 0.1265 µM): 1.21
- relative viability ([14]; first compound 0.4 µM): 1.01
- relative viability ([14]; first compound 1.265 µM): 0.815
- relative viability ([15]; first compound 0.04 µM): 0.803
- relative viability ([15]; first compound 0.1265 µM): 0.783
- relative viability ([15]; first compound 0.4 µM): 0.729
- relative viability ([15]; first compound 1.265 µM): 0.677
- relative viability ([16]; first compound 0.04 µM): 1.01
- relative viability ([16]; first compound 0.1265 µM): 1.02
- relative viability ([16]; first compound 0.4 µM): 0.982
- relative viability ([16]; first compound 1.265 µM): 0.77
- relative viability ([17]; first compound 0.04 µM): 0.994
- relative viability ([17]; first compound 0.1265 µM): 1
- relative viability ([17]; first compound 0.4 µM): 0.968
- relative viability ([17]; first compound 1.265 µM): 0.777
- relative viability ([18]; first compound 0.04 µM): 0.964
- relative viability ([18]; first compound 0.1265 µM): 0.941
- relative viability ([18]; first compound 0.4 µM): 0.985
- relative viability ([18]; first compound 1.265 µM): 0.883
- relative viability ([19]; first compound 0.04 µM): 0.782
- relative viability ([19]; first compound 0.1265 µM): 0.875
- relative viability ([19]; first compound 0.4 µM): 0.705
- relative viability ([19]; first compound 1.265 µM): 0.51
- relative viability ([20]; first compound 0.04 µM): 0.694
- relative viability ([20]; first compound 0.1265 µM): 0.752
- relative viability ([20]; first compound 0.4 µM): 0.585
- relative viability ([20]; first compound 1.265 µM): 0.187
- relative viability ([21]; first compound 0.04 µM): 0.993
- relative viability ([21]; first compound 0.1265 µM): 1.14
- relative viability ([21]; first compound 0.4 µM): 0.962
- relative viability ([21]; first compound 1.265 µM): 0.917
- relative viability ([22]; first compound 0.04 µM): 0.994
- relative viability ([22]; first compound 0.1265 µM): 1.12
- relative viability ([22]; first compound 0.4 µM): 1.01
- relative viability ([22]; first compound 1.265 µM): 0.786
